Data on four compounds can be found in patent US7205298B2, “Substituted triazine kinase inhibitors” (Janssen Pharmaceutica N.V., priority 2002, dated 2007).

Assay [1] concerns the target T1, VEGF-R (rat VEGF-R2 kinase domain) (Rattus norvegicus, UniProt O08775).
T1 construct: 6xHis (polyhistidine) (N)
Briefly: VEGF-R Screening Assay. In kind it is biochemical. How it is done: A kinase reaction mixture was prepared containing 50 mM Tris-HCl pH=8, 10 mM MgCl2, 0.1 mM Na3PO4, 1 mM DTT, 10 μM ATP, 0.025 μM biotinylated peptide substrate (also referred to herein as PLC-1 biotinylated peptide substrate and PDGF receptor substrate, sequence provided in the peptide substrate table) and 0.8 μCuries per well ^33P-γ-ATP (2000–3000 Ci/mmol). 70 μL of the kinase reaction mixture was dispensed into the well of a streptavidin coated FlashPlate™ (Cat. # SMP103, NEN, Boston, Mass.). Then 1 μL of test compound stock in 100% DMSO was added to the wells resulting in a final concentration of 1% DMSO in the reaction with a 100 μL final reaction volume. Next, soluble rat VEGF tyrosine kinase containing an N-terminal 6XHIS tag was diluted in 50 mM Tris-HCl pH=8.0, 0.1% BSA at a concentration of 5 ng per μL and 30 μL (150 ng enzyme per test well) was added to each well to initiate the reaction. The reaction was incubated for one hour at 30° C. At the end of the 1-hour incubation, the reaction was terminated by aspirating the reaction mixture from the plate and washing the wells twice with PBS containing 100 mM EDTA. The PLC1 biotinylated peptide substrate became immobilized on the Flashplate™ and the incorporation of ^33P-γ-ATP was measured by reading the plate on a scintillation counter. Inhibition of the enzymatic activity of the VEGF-R was measured by observing a reduced amount of ^33P-γ-ATP incorporated into the immobilized peptide.
(§1) Assays to test compound inhibition of other kinases were preformed using methods that measure the amount of phosphorylation of a biotinylated peptide substrate. Biotinylated peptide substrates were selected from the literature as appropriate for the enzyme being evaluated. The general procedure used to assay for kinase activity is as follows: a kinase reaction mix was prepared in 50 mM Tris-HCl pH=8, 10 mM MgCl2, 0.1 mM Na3VO4, 1 mM DTT, 10 μM ATP, 0.25–1 μM biotinylated peptide substrate, 0.2–0.8 μCuries per well ^33P-γ-ATP (2000–3000 Ci/mmol). Assay conditions vary slightly for each protein kinase, for example, insulin receptor kinase requires 10 mM MnCl2 for activity and Calmodulin-dependent protein kinase requires calmodulin and 2 mM CaCl2. The reaction mixture was dispensed into the wells of a streptavidin coated Flashplate and 1 μL test compound in 100% DMSO was added to a 100 μL reaction volume resulting in a final concentration of 1% DMSO in the reaction. Enzyme was diluted in 50 mM Tris-HCl pH=8.0, 0.1% BSA and added to each well. The reaction was incubated for one hour at 30° C. in the presence of a test compound. After one hour the reaction mix was aspirated from the plate and the plate was washed with PBS containing 100 mM EDTA. The plate was read on a scintillation counter to determine ^33P-γ-ATP incorporated into the immobilized peptide substrate. Test compounds were assayed in duplicate at 8 concentrations (100 μM, 10 μM, 1 μM, 100 nM, 10 nM, 1 nM, 100 pM, 10 pM). A maximum and minimum signal for the assay was determined on each plate. […] Known inhibitor compounds appropriate for the kinase being assayed were also included on each plate.
(§2) The form of VEGF-R (vascular endothelial growth factor receptor-2) used was a fusion protein containing a polyhistidine tag at the N-terminus followed by amino acids 786–1343 of the rat VEGF-R2 kinase domain (GenBank Accession #U93306). The form of CDK1 (cyclin dependent kinase 1) used was isolated from insect cells expressing both the human CDK1 catalytic subunit and its positive regulatory subunit cyclin B (CDK1:cyclin B protein, New England Biolabs, Beverly, Mass., Cat. #6020). The form of CDK4 (cyclin dependent kinase 4) used contains amino acids 769 to 921 of the mouse […] protein found in the GST-retinoblastoma protein construct (Santa Cruz Biotechnology, Santa Cruz, Calif.; Cat. #SC-4112). The form of EGF-R1 (epidermal growth factor receptor 1) used was purified from human A431 cell membranes (Sigma, St. Louis, Mo., Cat.# E3641). […]

The target in another assay is T2, CDK1:Cyclin-B (Homo sapiens, UniProt P06493).
T2 construct: purchased New England Biolabs 6020; host or cells: insect cells
T2 sequence (P06493 whole entry): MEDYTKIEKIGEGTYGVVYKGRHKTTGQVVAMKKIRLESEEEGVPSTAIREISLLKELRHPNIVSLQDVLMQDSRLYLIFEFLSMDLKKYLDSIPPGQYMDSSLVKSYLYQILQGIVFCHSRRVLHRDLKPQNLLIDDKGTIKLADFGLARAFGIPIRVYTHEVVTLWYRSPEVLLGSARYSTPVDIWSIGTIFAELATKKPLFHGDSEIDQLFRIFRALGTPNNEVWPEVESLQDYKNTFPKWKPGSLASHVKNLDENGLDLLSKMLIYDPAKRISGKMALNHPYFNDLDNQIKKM
T2 sequence (P14635 whole entry partner): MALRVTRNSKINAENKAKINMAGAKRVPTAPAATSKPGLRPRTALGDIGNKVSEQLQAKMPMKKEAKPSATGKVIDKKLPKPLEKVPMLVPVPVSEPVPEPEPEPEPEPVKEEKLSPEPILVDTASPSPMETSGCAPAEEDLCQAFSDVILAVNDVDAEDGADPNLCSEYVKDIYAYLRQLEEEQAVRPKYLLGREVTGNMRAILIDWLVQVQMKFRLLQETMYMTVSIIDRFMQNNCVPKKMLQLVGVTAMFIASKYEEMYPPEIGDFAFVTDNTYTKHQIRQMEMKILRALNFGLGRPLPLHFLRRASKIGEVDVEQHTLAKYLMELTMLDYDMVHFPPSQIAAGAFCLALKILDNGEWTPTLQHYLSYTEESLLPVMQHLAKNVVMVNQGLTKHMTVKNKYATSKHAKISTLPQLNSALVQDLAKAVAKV
As to the kind of experiment: CDK1 Screening Assay. In kind it is biochemical. On the procedure:
A kinase reaction mixture was prepared containing 50 mM Tris-HCl pH=8, 10 mM MgCl2, 0.1 mM Na3PO4, 1 mM DTT, 10 μM ATP, 0.025 μM biotinylated histone-H1 peptide substrate (also referred to herein as a CDK-1 peptide substrate, see substrate table) and 0.2 μCuries per well ^33P-γ-ATP (2000–3000 Ci/mmol). 70 μL of the kinase reaction mixture was dispensed into the well of a streptavidin coated FlashPlate™ (Cat. # SMP 103, NEN, Boston, Mass.). Then 1 μL of test compound stock in 100% DMSO was added to the wells resulting in a final concentration of 1% DMSO in the reaction with a 100 μl final reaction volume. Next, CDK1:Cyclin-B protein (New England Biolads, infra) was diluted in 50 mM Tris-HCl pH=8.0, 0.1% BSA at a concentration of 1 ng per μL and 30 μl (30 ng enzyme per test well) was added to each well to initiate the reaction. The reaction was incubated for one hour at 30° C. At the end of the 1-hour incubation, the reaction was terminated by aspirating the reaction mixture from the plate and washing the wells twice with PBS containing 100 mM EDTA. The histone-H1 biotinylated peptide substrate became immobilized on the Flashplate™ (Perkin Elmer, NEN Boston, Mass.) and the incorporation of ^33P-γ-ATP was measured by reading the plate on a scintillation counter. Inhibition of the enzymatic activity of CDK1 was measured by observing a reduced amount of ^33P-γ-ATP incorporated into the immobilized peptide.
as §1, §2

T1 sequence (O08775 786-1343): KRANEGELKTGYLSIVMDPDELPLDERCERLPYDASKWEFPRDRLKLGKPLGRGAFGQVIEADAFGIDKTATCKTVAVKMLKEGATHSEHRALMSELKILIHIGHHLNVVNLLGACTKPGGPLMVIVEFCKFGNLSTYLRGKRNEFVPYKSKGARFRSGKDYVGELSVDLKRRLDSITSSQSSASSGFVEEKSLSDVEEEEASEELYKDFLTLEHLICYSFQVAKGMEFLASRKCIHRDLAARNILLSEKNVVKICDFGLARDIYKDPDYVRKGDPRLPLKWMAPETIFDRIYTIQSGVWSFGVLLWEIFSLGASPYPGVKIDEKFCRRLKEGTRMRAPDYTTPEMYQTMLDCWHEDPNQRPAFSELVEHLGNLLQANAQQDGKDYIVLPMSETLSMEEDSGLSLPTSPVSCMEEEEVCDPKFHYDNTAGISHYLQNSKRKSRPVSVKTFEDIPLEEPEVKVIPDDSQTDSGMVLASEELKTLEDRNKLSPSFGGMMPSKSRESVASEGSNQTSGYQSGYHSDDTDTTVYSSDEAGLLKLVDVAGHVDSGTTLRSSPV

By IC50 is commonly meant the midpoint of a concentration-inhibition curve. Read a low IC50 as higher potency. For `OCCCNc1cncc(-c2ncnc(Nc3ccc(N4CCOCC4)cc3)n2)c1` [Compound 6, 3-((5-(4-((4-(4-morpholinyl)phenyl)amino)-1,3,5-triazin-2-yl)-3-pyridinyl)amino)-1-propanol], the IC50 in assay [1] was 5030 nM; against CDK1:Cyclin-B it was 1240 nM.
For `Nc1nc(Nc2cccc(Cl)c2)nc(-c2ccnc(NCCCO)c2)n1` [Compound 4, 3-((4-(4-amino-6-((3-chlorophenyl)amino)-1,3,5-triazin-2-yl)-2-pyridinyl)amino)-1-propanol] the same measures were 865 nM and 766 nM.
As to `OCCCNc1cncc(-c2ncnc(Nc3ccc4c(c3)OCCO4)n2)c1` [Compound 5, 3-((5-(4-((2,3-dihydro-1,4-benzodioxin-6-yl)amino)-1,3,5-triazin-2-yl)-3-pyridinyl)amino)-1-propanol], the IC50 is not below 10000 nM in assay [1] and 382 nM on CDK1:Cyclin-B.
For `OCCCNc1cncc(-c2ncnc(Nc3cccc(Cl)c3)n2)n1` [Compound 3, 3-((6-(4-((3-chlorophenyl)amino)-1,3,5-triazin-2-yl)pyrazin-2-yl)amino)-1-propanol] the same measures were 12900 nM and 971 nM.
